Results published in US10874646B2, “Epothilone analogs, methods of synthesis, methods of treatment, and drug conjugates thereof” (WILLIAM MARSH RICE UNIVERSITY, priority 2015, dated 2020).
Like-named read-outs stand apart in the source and are kept apart here.

Key:
[1] = tested on: tubulin; test: Induction/enhancement of tubulin assembly (Lin, et al., 1996); assay type: biochemical; details: 10 μM tubulin, 0.4M monosodium glutamate, 30 min at room temperature
[2] = tested on: NCI/ADR-RES; test: Cytotoxicity, standard NCI assay with sulforhodamine B, 96 h; assay type: cell-based, human; details: read-out: Cytotoxicity (nM, ± SD) NCI/ADR-RES
[3] = tested on: MDA-MB-435; test: as above; assay type: cell-based, human; details: read-out: Cytotoxicity (nM, ± SD) MDA-MB-435
[4] = tested on: SNB-75; test: as above; assay type: cell-based, human; details: read-out: Cytotoxicity (nM, ± SD) SNB-75
[5] = tested on: MCF-7; test: as above; details: for IC50: read-out: Cytotoxicity (nM, ± SD) MCF-7; for GI50: read-out: cytotoxicity (GI50, nM ± SD) MCF-7
[6] = tested on: OVCAR-8; test: as above; details: for IC50: read-out: Cytotoxicity (nM, ± SD) OVCAR-8; for GI50: read-out: cytotoxicity (GI50, nM ± SD) OVCAR-8
[7] = Table 3, read-out: Enhancement of tubulin assembly (EC50)
[8] = Homo sapiens, NCI/ADR-RES, 96 h
[9] = Table 2, read-out: induction of tubulin assembly (EC50, μM ± SD)
[10] = OVCAR-8, 96 h at 37° C., Table 2
[11] = NCI/ADR-RES (overexpresses P-glycoprotein), IC50, 96 h at 37° C., Table 3
[12] = MDA-MB-435, IC50, 96 h at 37° C., Table 3
[13] = SNB-75, IC50, 96 h at 37° C., Table 3
[14] = MCF-7, IC50, 96 h at 37° C., Table 3
[15] = OVCAR-8, IC50, 96 h at 37° C., Table 3

Row | SMILES | EC50 [1, 7] [µM] | IC50 [2, 8] [nM] | IC50 ([3]; Homo sapiens, MDA-MB-435, 96 h) [nM] | IC50 ([4]; Homo sapiens, SNB-75, 96 h) [nM] | IC50 ([5]; Homo sapiens, MCF7, 96 h) [nM] | IC50 ([6]; Homo sapiens, OVCAR-8, 96 h) [nM] | EC50 [1, 9] [µM] | further results
1 | CSc1nc(/C=C(\C)[C@@H]2C[C@@H]3N(CCO)[C@]3(C)CCC[C@H](C)[C@H](O)[C@@H](C)C(=O)C(C)(C)[C@@H](O)CC(=O)O2)cs1 (stereo partly shown) [Compound 78] | 14 ± 3 | 55 ± 7 | 42 ± 5 | 60 ± 10 | 28 ± 6 | 75 ± 10 | – | –
2 | C/C(=C\c1ccn(-c2ccc(N)cc2C(F)(F)F)n1)[C@@H]1C[C@@H]2O[C@]2(C)CCC[C@H](C)[C@H](O)[C@@H](C)C(=O)C(C)(C)[C@@H](O)CC(=O)O1 [Compound 13] | – | – | – | – | – | – | > 40 | GI50 ([5]; Homo sapiens, MCF7, 96 h): 9 ± 1 nM; GI50 ([6]; Homo sapiens, OVCAR-8, 96 h): 35 ± 5 nM
3 | C/C(=C\c1csc(CCN)n1)[C@@H]1C[C@@H]2N(CCO)[C@]2(C)CCC[C@H](C)[C@H](O)[C@@H](C)C(=O)C(C)(C)[C@@H](O)CC(=O)O1 (stereo partly shown) [Compound 76] | 9.1 ± 1 | 45 ± 6 | 3.8 ± 0.7 | 50 ± 10 | 15 ± 3 | 8.6 ± 1 | – | –
4 | C/C(=C\c1csc(C)n1)[C@@H]1C[C@@H]2O[C@]2(C)CCC[C@H](C)[C@H](O)[C@@H](C)C(=O)C(C)(C)[C@@H](O)CC(=O)N1 [Ixab, ixabepilone, reference compound] | – | – | – | – | – | – | 4.5 ± 0.7 | GI50 ([5]; Homo sapiens, MCF7, 96 h): 7 ± 1 nM; GI50 ([6]; Homo sapiens, OVCAR-8, 96 h): 35 ± 10 nM
5 | CSc1nc(/C=C(\C)[C@@H]2C[C@@H]3N[C@]3(C)CCC[C@H](C)[C@H](O)[C@@H](C)C(=O)C(C)(C)[C@@H](O)CC(=O)O2)cs1 [Compound 77] | 5 ± 1 | 8.8 ± 1 | 4.5 ± 0.5 | 11 ± 3 | 4 ± 1 | 16 ± 4 | – | –
6 | C/C(=C\c1csc(C)n1)[C@@H]1C/C=C\CCC[C@H](C)[C@H](O)[C@@H](C)C(=O)C(C)(C)[C@@H](O)CC(=O)O1 [EpoC, epothilone C, reference compound] | – | – | – | – | – | – | 18 | GI50 ([5]; MCF-7, 96 h at 37° C., Table 2): 70 nM; GI50 [6, 10]: 110 ± 7 nM
7 | C/C(=C\c1nc2ccccc2s1)[C@@H]1C[C@@H]2N(CCO)[C@]2(C)CCC[C@H](C)[C@H](O)[C@@H](C)C(=O)C(C)(C)[C@@H](O)CC(=O)O1 (stereo partly shown) [Compound 74] | 7.9 ± 1 | 630 ± 80 | 3.5 ± 0.3 | 12 ± 3 | 11 ± 1 | 23 ± 7 | – | –
8 | CSc1nc(/C=C(\C)[C@@H]2C[C@@H]3N(CCN=[N+]=[N-])[C@]3(C)CCC[C@H](C)[C@H](O)[C@@H](C)C(=O)C(C)(C)[C@@H](O)CC(=O)O2)cs1 (stereo partly shown) [Compound 80] | 5.4 ± 0.6 | 3.2 ± 0.8 | 7.3 ± 2 | 22 ± 3 | 13 ± 3 | 15 | – | –
9 | C/C(=C\c1csc(CN)n1)[C@@H]1C[C@@H]2N(CCO)[C@]2(C)CCC[C@H](C)[C@H](O)[C@@H](C)C(=O)C(C)(C)[C@@H](O)CC(=O)O1 (stereo partly shown) [Compound 75] | > 60 | 2800 | 20 ± 3 | 130 ± 20 | 65 ± 7 | 93 ± 20 | – | –
10 | C/C(=C\c1ccccn1)[C@@H]1C[C@@H]2N(CCO)[C@]2(C)CCC[C@H](C)[C@H](O)[C@@H](C)C(=O)C(C)(C)[C@@H](O)CC(=O)O1 (stereo partly shown) [Compound 73] | > 60 | 4000 | 30 ± 4 | 98 ± 10 | 250 ± 40 | 170 ± 20 | – | –
11 | C/C(=C\c1csc(C)n1)[C@@H]1C[C@@H]2O[C@]2(C)CCC[C@H](C)[C@H](O)[C@@H](C)C(=O)C(C)(C)[C@@H](O)CC(=O)O1 [EpoB, epothilone B, reference compound] | […] | – | – | – | – | – | […] | IC50 [2, 11]: 19 ± 4 nM; IC50 [3, 12]: 5.3 ± 0.7 nM; IC50 [4, 13]: 6.5 ± 2 nM; IC50 [5, 14]: 9.2 ± 2 nM; GI50 ([5]; MCF-7, 96 h at 37° C., Table 2): 5.5 nM; IC50 [6, 15]: 11 ± 3 nM; GI50 [6, 10]: […]
12 | C/C(=C\c1csc(N)n1)[C@@H]1C[C@@H]2N(CCO)[C@]2(C)CCC[C@H](C)[C@H](O)[C@@H](C)C(=O)C(C)(C)[C@@H](O)CC(=O)O1 (stereo partly shown) [Compound 83] | 13 ± 0.4 | 3800 | 220 ± 30 | 280 ± 30 | 330 ± 40 | 290 ± 10 | – | –
13 | CSc1nc(/C=C(\C)[C@@H]2C[C@@H]3N(CCN)[C@]3(C)CCC[C@H](C)[C@H](O)[C@@H](C)C(=O)C(C)(C)[C@@H](O)CC(=O)O2)cs1 (stereo partly shown) [Compound 79] | 6.1 ± 0.1 | 70 ± 10 | 15 ± 4 | 23 ± 6 | 14 ± 2 | 63 ± 3 | – | –
14 | C/C(=C\c1csc(C)n1)[C@@H]1C[C@@H]2O[C@@H]2CCC[C@H](C)[C@H](O)[C@@H](C)C(=O)C(C)(C)[C@@H](O)CC(=O)O1 [EpoA, epothilone A] | 14 ± 3 | – | – | – | – | – | 16 ± 2 | IC50 [2, 11]: 35 ± 5 nM; IC50 [3, 12]: 15 ± 2 nM; IC50 [4, 13]: 14 ± 3 nM; IC50 [5, 14]: 14 ± 4 nM; GI50 ([5]; MCF-7, 96 h at 37° C., Table 2): 10 ± 2 nM; IC50 [6, 15]: 20 ± 5 nM; GI50 [6, 10]: 11 ± 2 nM
15 | CC(=O)O[C@H]1C(=O)[C@@]2(C)[C@H]([C@H](OC(=O)c3ccccc3)[C@]3(O)C[C@H](OC(=O)[C@H](O)[C@@H](NC(=O)c4ccccc4)c4ccccc4)C(C)=C1C3(C)C)[C@]1(OC(C)=O)CO[C@@H]1C[C@@H]2O [PTX, paclitaxel, reference compound] | 5 ± 1 | – | – | – | 7.8 ± 2 | 10 ± 2 | – | IC50 ([2]; Homo sapiens, NCI/ADR-RES (overexpresses P-glycoprotein), IC50, 96 h at 37° C., Table 3): 4200 nM; IC50 ([3]; Homo sapiens, MDA-MB-435, IC50, 96 h at 37° C., Table 3): 4 ± 1 nM; IC50 ([4]; Homo sapiens, SNB-75, IC50, 96 h at 37° C., Table 3): 15 nM; GI50 ([5]; Homo sapiens, MCF7, 96 h): 8.5 nM; GI50 ([6]; Homo sapiens, OVCAR-8, 96 h): 6.5 ± 2 nM
16 | C/C(=C\c1csc(C)n1)[C@@H]1C[C@@H]2N(CCO)[C@]2(C)CCC[C@H](C)[C@H](O)[C@@H](C)C(=O)C(C)(C)[C@@H](O)CC(=O)O1 (stereo partly shown) [Compound 71] | 18.2 | 55 ± 20 | – | – | 3 ± 1 | 4.5 ± 0.7 | – | –
17 | C/C1=C/C[C@@H](/C(C)=C/c2csc(C)n2)OC(=O)C[C@H](O)C(C)(C)C(=O)[C@H](C)[C@@H](O)[C@@H](C)CCC1 [EpoD, epothilone D, reference compound] | – | – | – | – | – | – | 18 | GI50 ([5]; MCF-7, 96 h at 37° C., Table 2): 14 ± 1 nM; GI50 [6, 10]: 13 ± 4 nM
18 | C/C(=C\c1csc(C)n1)[C@@H]1C[C@@H]2N[C@]2(C)CCC[C@H](C)[C@H](O)[C@@H](C)C(=O)C(C)(C)[C@@H](O)CC(=O)O1 [Compound 70] | 19 | 35 ± 7 | – | – | 2 | 1.5 ± 0.7 | – | –
19 | CSc1cc(/C=C(\C)[C@@H]2C[C@@H]3N(CCO)[C@]3(C)CCC[C@H](C)[C@H](O)[C@@H](C)C(=O)C(C)(C)[C@@H](O)CC(=O)O2)nn1C (stereo partly shown) [Compound 82] | 4.6 ± 0.9 | 7.5 ± 2 | 12 ± 2 | 10 ± 2 | 10 ± 1 | 78 ± 4 | – | –
20 | CSc1nc(/C=C(\C)[C@@H]2C[C@@H]3N(CC4CC4)[C@]3(C)CCC[C@H](C)[C@H](O)[C@@H](C)C(=O)C(C)(C)[C@@H](O)CC(=O)O2)cs1 (stereo partly shown) [Compound 81] | 5.1 ± 0.4 | 18 ± 4 | 9.5 ± 2 | 16 ± 3 | 18 ± 3 | 15 ± 2 | – | –
